# Experimental data taken from ChEMBL document CHEMBL3046213, “Repellent, insecticidal and phytotoxic activities of isoalantolactone from Inula racemosa” (Crop Prot, 2006).
# Columns and labels:
# [1] = tested on: Sitophilus oryzae; experiment: Insecticidal activity against Sitophilus oryzae (rice weevil) assessed as mortality at 3000 ug/g after 5 days by food poison technique relative to acetone-treated control; type: functional
# [2] = tested on: Triticum aestivum; experiment: Phytotoxicity in Triticum aestivum (wheat) assessed as germination rate at 500 ug/ml pre-soaked for 30 min measured after 72 hr relative to acetone-treated control; type: organism-based; details: in vivo
# [3] = tested on: Sitophilus oryzae; experiment: Repellent activity against Sitophilus oryzae (rice weevil) assessed as settling responses at 50 ug/g preincubated for 12 hr prior to inoculation measured after 24 hr by food preference chamber method (reference value: 49.45 +/- 2.65 %); type: functional
# [4] = tested on: Sitophilus oryzae; experiment: Insecticidal activity against Sitophilus oryzae (rice weevil) assessed as mortality at 2000 ug/g after 20 days by food poison technique relative to acetone-treated control; type: functional
# [5] = tested on: Sitophilus oryzae; experiment: Insecticidal activity against Sitophilus oryzae (rice weevil) assessed as mortality after 15 days by food poison technique; type: functional
# [6] = tested on: Sitophilus oryzae; experiment: Insecticidal activity against Sitophilus oryzae (rice weevil) assessed as mortality at 3000 ug/g after 20 days by food poison technique relative to acetone-treated control; type: functional
# [7] = tested on: Triticum aestivum; experiment: Phytotoxicity in Triticum aestivum (wheat) assessed as germination rate at 500 ug/ml pre-soaked for 30 min measured after 48 hr relative to acetone-treated control; type: organism-based; details: in vivo
# [8] = tested on: Triticum aestivum; experiment: Phytotoxicity in Triticum aestivum (wheat) assessed as root growth at 500 ug/ml pre-soaked for 30 min measured after 72 hr relative to acetone-treated control; type: organism-based; details: in vivo
# [9] = tested on: Triticum aestivum; experiment: Phytotoxicity in Triticum aestivum (wheat) assessed as germination rate at 500 ug/ml pre-soaked for 60 min measured after 72 hr relative to acetone-treated control; type: organism-based; details: in vivo
# [10] = tested on: Triticum aestivum; experiment: Phytotoxicity in Triticum aestivum (wheat) assessed as shoot growth at 500 ug/ml pre-soaked for 60 min measured after 120 hr relative to acetone-treated control; type: organism-based; details: in vivo
# [11] = tested on: Sitophilus oryzae; experiment: Insecticidal activity against Sitophilus oryzae (rice weevil) assessed as mortality at 0.05 ug/g after 15 days by food poison technique relative to acetone-treated control; type: functional
# [12] = tested on: Sitophilus oryzae; experiment: Insecticidal activity against Sitophilus oryzae (rice weevil) assessed as mortality after 10 days by food poison technique; type: functional
# [13] = tested on: Triticum aestivum; experiment: Phytotoxicity in Triticum aestivum (wheat) assessed as shoot growth at 500 ug/ml pre-soaked for 30 min measured after 48 hr relative to acetone-treated control; type: organism-based; details: in vivo
# [14] = tested on: Sitophilus oryzae; experiment: Insecticidal activity against Sitophilus oryzae (rice weevil) assessed as mortality at 0.05 ug/g after 10 days by food poison technique relative to acetone-treated control; type: functional
# [15] = tested on: Sitophilus oryzae; experiment: Insecticidal activity against Sitophilus oryzae (rice weevil) assessed as mortality at 1000 ug/g after 10 days by food poison technique relative to acetone-treated control; type: functional
# [16] = tested on: Sitophilus oryzae; experiment: Insecticidal activity against Sitophilus oryzae (rice weevil) assessed as increase in mortality after 5 to 20 days by food poison technique; type: functional, organism-based
# [17] = tested on: Sitophilus oryzae; experiment: Insecticidal activity against Sitophilus oryzae (rice weevil) assessed as mortality at 600 ug/g after 15 days by food poison technique relative to acetone-treated control; type: functional
# [18] = tested on: Triticum aestivum; experiment: Phytotoxicity in Triticum aestivum (wheat) assessed as root growth at 500 ug/ml pre-soaked for 60 min measured after 96 hr relative to acetone-treated control; type: organism-based; details: in vivo
# [19] = tested on: Triticum aestivum; experiment: Phytotoxicity in Triticum aestivum (wheat) assessed as germination rate at 500 ug/ml pre-soaked for 60 min measured after 24 hr relative to acetone-treated control; type: organism-based; details: in vivo
# [20] = tested on: Triticum aestivum; experiment: Phytotoxicity in Triticum aestivum (wheat) assessed as germination rate at 500 ug/ml pre-soaked for 30 min measured after 24 hr relative to acetone-treated control; type: organism-based; details: in vivo
# [21] = tested on: Triticum aestivum; experiment: Phytotoxicity in Triticum aestivum (wheat) assessed as shoot growth at 500 ug/ml pre-soaked for 60 min measured after 96 hr relative to acetone-treated control; type: organism-based; details: in vivo
# [22] = tested on: Triticum aestivum; experiment: Phytotoxicity in Triticum aestivum (wheat) assessed as germination rate at 500 ug/ml pre-soaked for 60 min measured after 96 hr relative to acetone-treated control; type: organism-based; details: in vivo
# [23] = tested on: Sitophilus oryzae; experiment: Repellent activity against Sitophilus oryzae (rice weevil) assessed as settling responses at 75 ug/g preincubated for 12 hr prior to inoculation measured after 24 hr by food preference chamber method (reference value: 49.45 +/- 2.65 %); type: functional
# [24] = tested on: Triticum aestivum; experiment: Phytotoxicity in Triticum aestivum (wheat) assessed as root growth at 500 ug/ml pre-soaked for 30 min measured after 120 hr relative to acetone-treated control; type: organism-based; details: in vivo
# [25] = tested on: Triticum aestivum; experiment: Phytotoxicity in Triticum aestivum (wheat) assessed as root growth at 500 ug/ml pre-soaked for 30 min measured after 48 hr relative to acetone-treated control; type: organism-based; details: in vivo
# [26] = tested on: Sitophilus oryzae; experiment: Insecticidal activity against Sitophilus oryzae (rice weevil) assessed as mortality at 0.05 ug/g after 20 days by food poison technique relative to acetone-treated control; type: functional
# [27] = tested on: Sitophilus oryzae; experiment: Insecticidal activity against Sitophilus oryzae (rice weevil) assessed as mortality at 200 ug/g after 15 days by food poison technique relative to acetone-treated control; type: functional
# [28] = tested on: Sitophilus oryzae; experiment: Repellent activity against Sitophilus oryzae (rice weevil) assessed as settling responses at 100 ug/g preincubated for 12 hr prior to inoculation measured after 24 hr by food preference chamber method (reference value: 49.45 +/- 2.65 %); type: functional
# [29] = tested on: Sitophilus oryzae; experiment: Insecticidal activity against Sitophilus oryzae (rice weevil) assessed as mortality at 400 ug/g after 20 days by food poison technique relative to acetone-treated control; type: functional
# [30] = tested on: Triticum aestivum; experiment: Phytotoxicity in Triticum aestivum (wheat) assessed as shoot growth at 500 ug/ml pre-soaked for 60 min measured after 48 hr relative to acetone-treated control; type: organism-based; details: in vivo
smiles,measurement,setting,value
C=C1C(=O)O[C@@H]2C[C@@]3(C)CCCC(=C)[C@@H]3C[C@H]12 [ISOALANTOLACTONE],mortality,[1],100%
same,Activity,[2],100%
same,Activity,[3],12.87%
same,mortality,[4],100%
same,LC50,[5],655.31 µg/g
same,mortality,[6],100%
same,Activity,[7],94%
same,Activity,[8],97.4%
same,Activity,[9],84.6%
same,Activity,[10],63.5%
same,mortality,[11],100%
same,LC50,[12],707.21 µg/g
same,Activity,[13],100%
same,mortality,[14],100%
same,mortality,[15],64.28%
same,Activity,[16],Dose-dependent effect
same,mortality,[17],56.41%
same,Activity,[18],76.9%
same,Activity,[19],25%
same,Activity,[20],106.7%
same,Activity,[21],47.9%
same,Activity,[22],82.5%
same,Activity,[23],12.41%
same,Activity,[24],101.2%
same,Activity,[25],100.7%
same,mortality,[26],100%
same,mortality,[27],17.95%
same,Activity,[28],12.13%
same,mortality,[29],35.91%
same,Activity,[30],53.7%
